Values of other authors, collected in paper PMC6912862 (ACS Medicinal Chemistry Letters, 2019).
Values joined by “and” are separate entries in the source; they are usually repeats but may differ in a detail not shown here. Equal entries are not always repeated.

How the values were obtained:
HeLa cells = conditions: cisplatin comparison
HeLa xenograft = conditions: same conditions (2.0 mg/kg), p < 0.05

In the case of N.N.[Cl][Pt][Cl] [cisplatin, cis-[PtCl2(NH3)2]], the “Cell accumulation of Pt” value (HeLa cells) is given as 4.11 ± 0.59 (nmol of Pt)/10^6 cells and the “Inhibition of tumor growth (IR), cisplatin-treated groups” value (HeLa xenograft) is given as 35.2% and 35.2 ± 5.8%.
